Patent US20030180947A1, “Circadian control of stem/progenitor cell self-renewal and differentiation and of clock controlled gene expression” (priority 2001, published 2003)
Entries after “also recorded” stand apart in the source; their conditions may differ.

Legend:
[1] = tested on: mper1 promoter; assay: Per1-luciferase reporter (pGL3-mPer1-7.2 kb) in transfected NIH 3T3 cells; format: cell-based, mouse; details: NIH 3T3, pGL3-mPer1-7.2 kb; 10^−6 M; 7 hours; FIG. 14
Description: FIG. 14 is a bar graph illustrating the effects of neurotransmitter analog treatment on NIH 3T3 cells transfected with pGL3-mPer1-7.2kb, which contains luciferase under control of a 7.2 kb region of the mper1 promoter. Cells were exposed to 10^−6 M forskolin as a positive control, 10^−6 M isoproterenol (a beta-adrenergic agonist), 10^−6 M propranolol (a beta-adrenergic antagonist), 10^−6 M phenylephrine (an alpha-adrenergic agonist), and 10^−6 M pentolamine (an alpha-adrenergic antagonist) for 7 hours.
H1299 cells were maintained in RPMI1640 (Gibco) with 10% FBS (Hyclone). NIH3T3 cells were maintained in DMEM (Gibco) with 10% FBS (Hyclone). The day before transfection, 3×10^5 cells/well were plated onto six-well plates. Cells were transfected with 500 ng of each expression plasmid, 100 ng of the firefly luciferase reporter construct and 2 ng of the Renilla luciferase control plasmid (pRL-SV40; Promega) using SuperFect transfection reagent (Qiagen) following the manufacturer's instructions. The Renilla luciferase control plasmid was cotrasfected to normalize transfection efficiency. When expression plasmids were omitted, same amount of the pcDNA3 plasmid was used to substitute the expression plasmids. Forty hours after transfection, cells were washed once with 1×PBS (Sigma) and lysed with 500 μl of passive lysis buffer (Promega). Luciferase activity of the cell lysate was assayed with the Dual-Luciferase Reporter Assay System (Promega) using a luminometer (Optocomp1; MGM Instruments) as recommended by the manufacturer.
A Per1-luciferase reporter plasmid was constructed essentially as described above, using a 7.2 kb fragment of the promoter region from mper1, forming pGL3-mPer1-7.2 kb. NIH 3T3 cells were transfected with pGL3-mPer1-7.2 kb as described above and cells were exposed to 10^−6 M forskolin as a positive control, 10^−6 M isoproterenol (a beta-adrenergic agonist), 10^−6 M propranolol (a beta-adrenergic antogonist), 10^−6 M phenylephrine (an alpha-adrenergic agonist), and 10^−6 M pentolamine (an alpha-adrenergic antagonist). Cells were exposed to the neurotransmitters for 7 hours and luciferase activity was measured as described above.

[2] = tested on: mPer1 expression in the lin− cells; assay: Effect on mPer1 expression in lin− bone marrow cells (relative quantitative RT-PCR); format: cell-based, mouse; details: 200 nM dexamethasone or 1 μM PMA, 1 or 2 hours, vs ethanol control
Description: (§1) Bone marrow cells were incubated with ACK lysing buffer (0.15M NH4Cl, 1 mM KHCO3 and 0.1 mM Na2EDTA; pH7.2) at room temperature for 4 minutes to remove red blood cells. The lin^− (lineage marker-negative) bone marrow cells were obtained by depleting lineage marker-positive cells using the MACS magnetic separation system (Miltenyi Biotec, Auburn, Calif.) according to the manufacturer's instructions. The antibodies used were PE-labeled rat anti-mouse Gr-1, TER119, B220, CD4, CD8, and Mac-1 monoclonal antibodies (all from BD PharMingen, San Diego, Calif.). Briefly, the cells were incubated with the antibody cocktail for the lineage markers described above at 6-10° C. for 15 minutes. After two washes with 1×phosphate-buffered saline (PBS; Sigma, St. Louis, Mo.) supplemented with 0.5% FBS (Hyclone), the cells were incubated with anti-PE antibody-coated magnetic beads (Miltenyi Biotec) at 6-10° C. for 15 minutes. […]
(§2) For each RT-PCR experiment, samples from six time points were analyzed at the same time. […]
(§3) Within each PCR experiment, the linear range of amplification was first determined using cDNA pooled from 6 time points. […]
(§4) As a negative control, the products of the RT reactions, without reverse transcriptase, were subjected to the same PCR amplification. […] Their relative quantities were determined by using the Image-Pro Plus software (Media Cybernetics). […]

[3] = tested on: mPer2 expression in the lin− cells; assay: Effect on mPer2 expression in lin− bone marrow cells (relative quantitative RT-PCR); format: cell-based, mouse; details: 200 nM dexamethasone or 1 μM PMA, 1 or 2 hours, vs ethanol control
Description: as §1, §2, §3, §4

[4] = tested on: Rat-1 fibroblasts; details: cultured Rat-1 fibroblasts; Balsalobre et al. 2000; cited from earlier work
[5] = biological target: T1, mLATS2 fused to the GAL4 DNA binding domain (pGBKT7-mLATS2) (mouse, UniProt P04386 1-147; Q7TSJ6 1-1042); assay: yeast two-hybrid assay
T1 construct: Yeast two-hybrid construct made by inserting the Bsm I-Xho I fragment of pcDNA3-mLATS2 into pGBKT7-mLATS2b; also called mLATS2/2b

In the case of Cc1ccc(N(CC2=NCCN2)c2cccc(O)c2)cc1 [pentolamine], the “expression levels relative to the forskolin positive control” value [1] is reported as “slightly diminished” and the “luciferase activity relative to control” value [1] is reported as “increased luciferase activity”.

For CCCCCCCCCCCCCC(=O)O[C@@H]1[C@@H](C)[C@@]2(O)[C@@H](C=C(CO)C[C@]3(O)C(=O)C(C)=C[C@@H]23)[C@@H]2C(C)(C)[C@]12OC(C)=O [PMA, phorbol-12-myristate-13-acetate], the mPer1 expression [2] is listed as “not affected”, the mPer2 expression [3] is listed as “neither dexamethasone nor PMA had a significant effect” and the “Per1 induction and circadian gene expression” value [4] is listed as “induce mPer1 expression and elicit circadian gene expression; also recorded: induce immediate Per1 up-regulation and trigger circadian expression”.

With CC(C)NCC(O)c1ccc(O)c(O)c1 (stereo not shown) [isoproterenol] the “expression levels relative to the forskolin positive control” value [1] was “slightly diminished” and the “luciferase activity relative to control” value [1] was “increased luciferase activity”.

With CNC[C@H](O)c1cccc(O)c1 [phenylephrine] the “expression levels relative to the forskolin positive control” value [1] was “slightly diminished” and the “luciferase activity relative to control” value [1] was “increased luciferase activity”.

B1: mRBT1C76 fused to the GAL4 activation domain (pGADT7-mRBT1C76) (other, UniProt P04386 768-881, looked up)
chain: ANFNQSGNIADSSLSFTFTNSSNGPNLITTQTNSQALSQPIASSNVHDNFMNNEITASKIDDGNNSKPLSPGWTDQTAYNAFGITTGMFNTTTMDDVYNYLFDDEDTPPNPKKEPQNEIVSQADPVFLEALSSRYLGDSGLDDFFLDIDTSAVEKDVALPPPEPPHSLFCSPGSWEWNELDHIMEIILGS
notes: Yeast two-hybrid construct; also called C-terminal 76 amino acids of mRBT1
B1: no binding [5].
